Source: ChEMBL document CHEMBL1932970, “Facile synthesis of 1,2,3-triazole analogs of SGLT2 inhibitors by 'click chemistry'” (Bioorg Med Chem Lett, 2012)
The source made the active and inactive calls. The rule behind the calls is not given here.

Tested on: Rattus norvegicus
Test: Antidiabetic activity in fasted Sprague-Dawley rat assessed as increase in urinary glucose excretion at 30 mg/kg, po administered 0.5 hrs before glucose challenge measured after 24 hrs by UV spectrophotometric analysis relative to control
Type: functional, organism-based
Design: dose 30 mg/kg
Conditions: Urine

Compound | Activity
CCOc1ccc(Cc2cc([C@@H]3O[C@H](CO)[C@@H](O)[C@H](O)[C@H]3O)ccc2Cl)cc1 | Active
O=[N+]([O-])c1ccc(Cn2cc(C[C@@H]3O[C@H](CO)[C@@H](O)[C@H](O)[C@H]3O)nn2)cc1 | Active
OC[C@H]1O[C@@H](Cc2cn(Cc3ccccc3Cl)nn2)[C@H](O)[C@@H](O)[C@@H]1O | Active
OC[C@H]1O[C@@H](Cc2cn(Cc3ccccc3)nn2)[C@H](O)[C@@H](O)[C@@H]1O | Active
Cc1ccc(Cn2cc(C[C@@H]3O[C@H](CO)[C@@H](O)[C@H](O)[C@H]3O)nn2)cc1 | Active
OC[C@H]1O[C@@H](Cc2cn(Cc3cc4ccc(Cl)cc4s3)nn2)[C@H](O)[C@@H](O)[C@@H]1O | Active
OC[C@H]1O[C@@H](Cc2cn(Cc3ccc(-c4ccc(F)cc4)s3)nn2)[C@H](O)[C@@H](O)[C@@H]1O | Active
OC[C@H]1O[C@@H](Cc2cn(Cc3nc4ccccc4s3)nn2)[C@H](O)[C@@H](O)[C@@H]1O | Active
